Experiment: Henry solubility constant Hcp at 298.15 K (mol/(m3 Pa))
Details: reference: Cetin et al. (2006)

Structure (SMILES)	Henry solubility constant Hcp
ClC1C(Cl)C(Cl)C(Cl)C(Cl)C1Cl (stereo not given) [γ-1,2,3,4,5,6-hexachlorocyclohexane]	3.9
ClC1=C(Cl)[C@]2(Cl)[C@@H]3[C@@H]4C[C@@H]([C@H]5O[C@@H]45)[C@@H]3[C@@]1(Cl)C2(Cl)Cl [dieldrin]	0.92
ClC1C(Cl)C(Cl)C(Cl)C(Cl)C1Cl (stereo not drawn) [α-1,2,3,4,5,6-hexachlorocyclohexane]	3
ClC1=C(Cl)[C@]2(Cl)[C@H]3[C@H](Cl)[C@@H](Cl)C[C@H]3[C@@]1(Cl)C2(Cl)Cl [trans-chlordane]	0.063
ClC1=C(Cl)C2(Cl)C3C(Cl)C(Cl)C(Cl)C3C1(Cl)C2(Cl)Cl (stereo not drawn) [trans-nonachlor]	0.088
ClC1=C(Cl)C2(Cl)C3C(Cl)C=CC3C1(Cl)C2(Cl)Cl (stereo not given) [heptachlor]	0.019
ClC(Cl)=C(c1ccc(Cl)cc1)c1ccc(Cl)cc1 [1,1-dichloro-2,2-bis-(4-chlorophenyl)-ethene]	0.16
ClC1=C(Cl)C2(Cl)C3C4OC4C(Cl)C3C1(Cl)C2(Cl)Cl (stereo not given) [heptachlorepoxide]	0.5
ClC1=C(Cl)C2(Cl)[C@H]3C(Cl)C(Cl)C(Cl)[C@H]3C1(Cl)C2(Cl)Cl (stereo partly drawn) [cis-nonachlor]	1.4
ClC1=C(Cl)[C@]2(Cl)[C@H]3[C@H]([C@@H]4C=C[C@H]3C4)[C@@]1(Cl)C2(Cl)Cl [aldrin]	0.022
Clc1ccc(C(c2ccc(Cl)cc2)C(Cl)Cl)cc1 [1,1-dichloro-2,2-bis-(4-chlorophenyl)-ethane]	0.91
Clc1ccc(C(c2ccc(Cl)cc2)C(Cl)(Cl)Cl)cc1 [1,1,1-trichloro-2,2-bis-(4-chlorophenyl)-ethane]	0.9
CCOP(=S)(OCC)Oc1nc(Cl)c(Cl)cc1Cl [chlorpyrifos]	0.22
ClC1=C(Cl)[C@]2(Cl)[C@@H]3[C@@H](Cl)[C@@H](Cl)C[C@@H]3[C@@]1(Cl)C2(Cl)Cl [cis-chlordane]	0.15
ClC1=C(Cl)[C@]2(Cl)[C@@H]3[C@H]4C[C@H]([C@@H]5O[C@H]45)[C@@H]3[C@@]1(Cl)C2(Cl)Cl [endrin]	1.8

From Sander's compilation of Henry's law constants (doi:10.1016/j.atmosenv.2006.04.009)
